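Following 48 hours of exposure in 96-well plates, responses at five concentrations were used to interpolate endpoints linearly. TGI: total growth inhibition.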
Columns and labels:
Assay in all cases: DTP human tumour cell line panel, 48 h
DU-145 prostate = tested on: DU-145 prostate
SF-268 CNS = tested on: SF-268 CNS
NCI-H23 lung = tested on: NCI-H23 lung
A549 NSCLC = tested on: A549 NSCLC
SF-539 CNS = tested on: SF-539 CNS
NCI-H460 lung = tested on: NCI-H460 lung
HCC-2998 colon = tested on: HCC-2998 colon
786-0 renal = tested on: 786-0 renal
SK-MEL-2 melanoma = tested on: SK-MEL-2 melanoma
BT-549 breast = tested on: BT-549 breast
MDA-N = tested on: MDA-N
SNB-19 CNS = tested on: SNB-19 CNS
SN12C renal = tested on: SN12C renal
MDA-MB-435 = tested on: MDA-MB-435
SNB-75 CNS = tested on: SNB-75 CNS
U251 CNS = tested on: U251 CNS
IGROV1 ovarian = tested on: IGROV1 ovarian
K-562 leukemia = tested on: K-562 leukemia
SF-295 CNS = tested on: SF-295 CNS
LOX IMVI melanoma = tested on: LOX IMVI melanoma
OVCAR-5 ovarian = tested on: OVCAR-5 ovarian
UO-31 renal = tested on: UO-31 renal
SW-620 colon = tested on: SW-620 colon
HOP-92 NSCLC = tested on: HOP-92 NSCLC
OVCAR-8 ovarian = tested on: OVCAR-8 ovarian
HOP-62 NSCLC = tested on: HOP-62 NSCLC
SK-MEL-28 melanoma = tested on: SK-MEL-28 melanoma
MALME-3M melanoma = tested on: MALME-3M melanoma
MDA-MB-231 breast = tested on: MDA-MB-231 breast
OVCAR-4 ovarian = tested on: OVCAR-4 ovarian
OVCAR-3 ovarian = tested on: OVCAR-3 ovarian
HL-60(TB) leukemia = tested on: HL-60(TB) leukemia
RXF 393 renal = tested on: RXF 393 renal
MCF7 breast = tested on: MCF7 breast
SK-OV-3 ovarian = tested on: SK-OV-3 ovarian
HCT-116 colon = tested on: HCT-116 colon
HS 578T breast = tested on: HS 578T breast
NCI-H226 lung = tested on: NCI-H226 lung
SR leukemia = tested on: SR leukemia
COLO 205 colon = tested on: COLO 205 colon
NCI/ADR-RES ovarian = tested on: NCI/ADR-RES ovarian
T-47D breast = tested on: T-47D breast
NCI-H522 lung = tested on: NCI-H522 lung
HT29 colon = tested on: HT29 colon
ACHN renal = tested on: ACHN renal
UACC-62 melanoma = tested on: UACC-62 melanoma
TK-10 renal = tested on: TK-10 renal
HCT-15 colon = tested on: HCT-15 colon
MOLT-4 leukemia = tested on: MOLT-4 leukemia
PC-3 prostate = tested on: PC-3 prostate
SK-MEL-5 melanoma = tested on: SK-MEL-5 melanoma
EKVX NSCLC = tested on: EKVX NSCLC
CCRF-CEM leukemia = tested on: CCRF-CEM leukemia
RPMI-8226 leukemia = tested on: RPMI-8226 leukemia
KM12 colon = tested on: KM12 colon
CAKI-1 renal = tested on: CAKI-1 renal
UACC-257 melanoma = tested on: UACC-257 melanoma
A498 renal = tested on: A498 renal
M14 melanoma = tested on: M14 melanoma

Measured: TGI

Nc1nc(Cl)cc(NCC2(CO)CCC2)n1
not listed: UACC-257 melanoma | A498 renal | M14 melanoma
> 100 µM: all other assays above

CS(=O)(=O)c1[nH]nc2[nH]c(=O)[nH]c(=O)c12
not listed: K-562 leukemia | UO-31 renal | RPMI-8226 leukemia
> 10 µM: all other assays above
